Measurements as given in patent US4299839A, “Novel pesticides and pesticidal compositions cyclopropanecarboxylates and pesticidal method” (priority 1979, dated 1981).

Tested on: green rice leafhoppers
Experiment: Utility Example 1: emulsifiable concentrate sprayed over rice seedlings, green rice leafhopper mortality
Format: in vivo
Conditions: 30% emulsifiable concentrate diluted 300-fold, 100 ml/pot, 24 hours; cis/trans 50/50
Procedure: To 30 parts of each of Compounds (1) to (38) were added 50 parts of xylene and 20 parts of Sorpol SM-200 (a surfactant, trademark of Toho Chemical Co., Ltd.). The mixture was stirred well and dissolved to obtain a 30% emulsifiable concentrate.
The emulsifiable concentrate prepared from Compounds (7), (11), (12), (15), (17), (21) and (22) [Each compound is a mixture of cis- and trans-isomer in a ratio 50/50] in Formulation Example 5 were each diluted 300-fold with water. Then, each of the dilutions was sprayed over rice seedlings 25 days after sowing at the rate of 100 ml/pot. The pot was covered with a wire net and 15 green rice leafhoppers were released under the net. After 24 hours, the leafhoppers were examined for deaths. The mortality (%) was not less than 90% for each of Compounds (7), (11), (12), (15), (17), (21) and (22).

SMILES | Mortality (%)
C#CC(OC(=O)C1C(CC(Cl)(Cl)Cl)C1(C)C)c1cccc(Oc2ccc(Br)cc2)c1 (stereo not drawn) [(22), 3-(4-Bromophenoxy)-α-ethynylbenzyl 2,2-dimethyl-3-(2,2,2-trichloroethyl)cyclopropanecarboxylate] | not less than 90%
CC1(C)C(CC(Cl)(Cl)Cl)C1C(=O)OC(C#N)c1cccc(Oc2ccc(Br)cc2)c1 (stereo not drawn) [(17), 3-(4-Bromophenoxy)-α-cyanobenzyl 2,2-dimethyl-3-(2,2,2-trichloroethyl)cyclopropanecarboxylate] | not less than 90%
